From PubChem BioAssay (NCI)
Several values for one entry are separate records, joined by “and”; a condition that tells them apart may be missing. Equal values may be shown once.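 Step 1: Grow cells in 96-well plates. Step 2: Expose to compound for 48 hours at 5 concentrations. Step 3: Interpolate endpoints linearly; if unreached, use highest concentration. TGI marks complete inhibition of growth.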

Legend:
Assay in all cases: NCI-60 cell line screen, 48 h
OVCAR-8 ovarian = test system: OVCAR-8 ovarian
COLO 205 colon = test system: COLO 205 colon
HL-60(TB) leukemia = test system: HL-60(TB) leukemia
OVCAR-3 ovarian = test system: OVCAR-3 ovarian
U251 CNS = test system: U251 CNS
SR leukemia = test system: SR leukemia
HT29 colon = test system: HT29 colon
XF 498 CNS = test system: XF 498 CNS
HOP-62 NSCLC = test system: HOP-62 NSCLC
SK-MEL-5 melanoma = test system: SK-MEL-5 melanoma
SF-539 CNS = test system: SF-539 CNS
IGROV1 ovarian = test system: IGROV1 ovarian
NCI-H226 lung = test system: NCI-H226 lung
786-0 renal = test system: 786-0 renal
EKVX NSCLC = test system: EKVX NSCLC
ACHN renal = test system: ACHN renal
UACC-257 melanoma = test system: UACC-257 melanoma
NCI/ADR-RES ovarian = test system: NCI/ADR-RES ovarian
RXF 393 renal = test system: RXF 393 renal
NCI-H522 lung = test system: NCI-H522 lung
HOP-92 NSCLC = test system: HOP-92 NSCLC
MDA-N = test system: MDA-N
MALME-3M melanoma = test system: MALME-3M melanoma
SK-OV-3 ovarian = test system: SK-OV-3 ovarian
M19-MEL melanoma = test system: M19-MEL melanoma
DMS 273 small cell lung = test system: DMS 273 small cell lung
NCI-H460 lung = test system: NCI-H460 lung
KM20L2 colon = test system: KM20L2 colon
HS 578T breast = test system: HS 578T breast
SF-295 CNS = test system: SF-295 CNS
K-562 leukemia = test system: K-562 leukemia
LXFL 529 NSCLC = test system: LXFL 529 NSCLC
MCF7 breast = test system: MCF7 breast
MOLT-4 leukemia = test system: MOLT-4 leukemia
DMS 114 small cell lung = test system: DMS 114 small cell lung
CCRF-CEM leukemia = test system: CCRF-CEM leukemia
NCI-H23 lung = test system: NCI-H23 lung
BT-549 breast = test system: BT-549 breast
SK-MEL-28 melanoma = test system: SK-MEL-28 melanoma
PC-3 prostate = test system: PC-3 prostate
MDA-MB-231 breast = test system: MDA-MB-231 breast
SW-620 colon = test system: SW-620 colon
SNB-78 CNS = test system: SNB-78 CNS
RPMI-8226 leukemia = test system: RPMI-8226 leukemia
MDA-MB-435 = test system: MDA-MB-435
A549 NSCLC = test system: A549 NSCLC
OVCAR-4 ovarian = test system: OVCAR-4 ovarian
T-47D breast = test system: T-47D breast
TK-10 renal = test system: TK-10 renal
M14 melanoma = test system: M14 melanoma
A498 renal = test system: A498 renal
DU-145 prostate = test system: DU-145 prostate
HCC-2998 colon = test system: HCC-2998 colon
LOX IMVI melanoma = test system: LOX IMVI melanoma
KM12 colon = test system: KM12 colon
SF-268 CNS = test system: SF-268 CNS
HCT-15 colon = test system: HCT-15 colon
UO-31 renal = test system: UO-31 renal
OVCAR-5 ovarian = test system: OVCAR-5 ovarian
HCT-116 colon = test system: HCT-116 colon
SK-MEL-2 melanoma = test system: SK-MEL-2 melanoma
SN12C renal = test system: SN12C renal
SNB-19 CNS = test system: SNB-19 CNS
CAKI-1 renal = test system: CAKI-1 renal
UACC-62 melanoma = test system: UACC-62 melanoma
SNB-75 CNS = test system: SNB-75 CNS
DLD-1 colon = test system: DLD-1 colon
HOP-18 NSCLC = test system: HOP-18 NSCLC

Cc1cc(CS(=O)(=O)/C=C/c2ccccc2[N+](=O)[O-])c(CS(=O)(=O)/C=C/c2ccccc2[N+](=O)[O-])cc1C
TGI (OVCAR-8 ovarian): > 100 µM
TGI (COLO 205 colon): > 100 µM
TGI (HL-60(TB) leukemia): > 100 µM
TGI (OVCAR-3 ovarian): > 100 µM
TGI (U251 CNS): 71.3 µM
TGI (SR leukemia): > 100 µM
TGI (HT29 colon): > 100 µM
TGI (XF 498 CNS): 38.3 µM
TGI (HOP-62 NSCLC): 49.4 µM
TGI (SK-MEL-5 melanoma): > 100 µM
TGI (SF-539 CNS): 35.9 µM
TGI (IGROV1 ovarian): > 100 µM
TGI (NCI-H226 lung): 59.4 µM
TGI (786-0 renal): 34.9 µM
TGI (EKVX NSCLC): > 100 µM
TGI (ACHN renal): > 100 µM
TGI (UACC-257 melanoma): > 100 µM
TGI (NCI/ADR-RES ovarian): > 100 µM
TGI (RXF 393 renal): 41.2 µM
TGI (NCI-H522 lung): > 100 µM
TGI (HOP-92 NSCLC): 74.1 µM
TGI (MDA-N): 99.7 µM
TGI (MALME-3M melanoma): > 100 µM
TGI (SK-OV-3 ovarian): 37.5 µM
TGI (M19-MEL melanoma): > 100 µM
TGI (DMS 273 small cell lung): > 100 µM
TGI (NCI-H460 lung): > 100 µM
TGI (KM20L2 colon): > 100 µM
TGI (HS 578T breast): > 62.5 µM
TGI (SF-295 CNS): 63.2 µM
TGI (K-562 leukemia): > 100 µM
TGI (LXFL 529 NSCLC): > 100 µM
TGI (MCF7 breast): > 100 µM
TGI (MOLT-4 leukemia): > 100 µM
TGI (DMS 114 small cell lung): > 100 µM
TGI (CCRF-CEM leukemia): > 46.4 µM
TGI (NCI-H23 lung): > 51.7 µM
TGI (BT-549 breast): 44.4 µM
TGI (SK-MEL-28 melanoma): > 100 µM
TGI (PC-3 prostate): > 100 µM
TGI (MDA-MB-231 breast): > 51.2 µM
TGI (SW-620 colon): > 100 µM
TGI (SNB-78 CNS): 66.2 µM
TGI (RPMI-8226 leukemia): > 86 µM
TGI (MDA-MB-435): > 100 µM
TGI (A549 NSCLC): > 100 µM
TGI (OVCAR-4 ovarian): 32.3 µM
TGI (T-47D breast): > 100 µM
TGI (TK-10 renal): > 81.8 µM
TGI (M14 melanoma): > 100 µM
TGI (A498 renal): 70.9 µM
TGI (DU-145 prostate): > 100 µM
TGI (HCC-2998 colon): > 100 µM
TGI (LOX IMVI melanoma): > 100 µM
TGI (KM12 colon): > 100 µM
TGI (SF-268 CNS): > 100 µM
TGI (HCT-15 colon): > 100 µM
TGI (UO-31 renal): > 100 µM
TGI (OVCAR-5 ovarian): > 100 µM
TGI (HCT-116 colon): > 100 µM
TGI (SK-MEL-2 melanoma): 36.5 µM
TGI (SN12C renal): > 100 µM
TGI (SNB-19 CNS): > 83.1 µM
TGI (CAKI-1 renal): > 100 µM
TGI (UACC-62 melanoma): > 100 µM
TGI (SNB-75 CNS): 32 µM

Brc1ccc(N2C[N+](c3ccc(Br)cc3)=NC(c3ccccc3)=N2)cc1
TGI (OVCAR-8 ovarian): 41.9 µM and > 100 µM
TGI (COLO 205 colon): 33.7 µM and > 100 µM
TGI (HL-60(TB) leukemia): 35.2 µM and > 100 µM
TGI (U251 CNS): 33.5 µM and > 100 µM
TGI (HT29 colon): 27.8 µM and > 100 µM
TGI (XF 498 CNS): 35.5 µM and > 100 µM
TGI (HOP-62 NSCLC): 31.2 µM and > 100 µM
TGI (SK-MEL-5 melanoma): 29.4 µM and > 100 µM
TGI (SF-539 CNS): 29.8 µM and > 100 µM
TGI (IGROV1 ovarian): 29.1 µM and > 100 µM
TGI (NCI-H226 lung): 44.4 µM and > 100 µM
TGI (786-0 renal): 29.5 µM and > 100 µM
TGI (EKVX NSCLC): 31.8 µM and > 100 µM
TGI (ACHN renal): 26.4 µM and > 100 µM
TGI (UACC-257 melanoma): 31.3 µM and > 100 µM
TGI (DLD-1 colon): 25.2 µM and > 100 µM
TGI (RXF 393 renal): 37.7 µM and > 100 µM
TGI (NCI-H522 lung): 36.4 µM and > 100 µM
TGI (HOP-92 NSCLC): 34.1 µM and > 100 µM
TGI (MALME-3M melanoma): 31.2 µM and > 100 µM
TGI (SK-OV-3 ovarian): 34.3 µM and > 100 µM
TGI (M19-MEL melanoma): 29.7 µM and > 100 µM
TGI (DMS 273 small cell lung): 21.1 µM and > 100 µM
TGI (NCI-H460 lung): 29.5 µM and > 100 µM
TGI (KM20L2 colon): 33.8 µM and > 100 µM
TGI (SF-295 CNS): 29.1 µM and > 100 µM
TGI (K-562 leukemia): 32.8 µM and > 100 µM
TGI (LXFL 529 NSCLC): 23 µM and > 100 µM
TGI (MOLT-4 leukemia): 32.5 µM and > 100 µM
TGI (DMS 114 small cell lung): 34.7 µM and 97.8 µM
TGI (HOP-18 NSCLC): 28 µM and > 100 µM
TGI (NCI-H23 lung): 31.7 µM and > 100 µM
TGI (SK-MEL-28 melanoma): 39.2 µM and > 100 µM
TGI (SW-620 colon): 40.9 µM and > 100 µM
TGI (SNB-78 CNS): 70.6 µM and > 100 µM
TGI (RPMI-8226 leukemia): 27.7 µM and > 100 µM
TGI (A549 NSCLC): 33.6 µM and > 100 µM
TGI (OVCAR-4 ovarian): 35.3 µM and > 100 µM
TGI (TK-10 renal): 38 µM and > 100 µM
TGI (M14 melanoma): 26.2 µM and > 100 µM
TGI (A498 renal): 32.8 µM and > 100 µM
TGI (HCC-2998 colon): 28.7 µM and > 100 µM
TGI (KM12 colon): 28.1 µM and > 100 µM
TGI (SF-268 CNS): 35.8 µM and > 100 µM
TGI (HCT-15 colon): 33.5 µM and > 100 µM
TGI (UO-31 renal): 27.6 µM and > 100 µM
TGI (OVCAR-5 ovarian): 30.2 µM and > 100 µM
TGI (HCT-116 colon): 32.9 µM and > 100 µM
TGI (SK-MEL-2 melanoma): 32.6 µM and > 100 µM
TGI (SN12C renal): 33.3 µM and > 100 µM
TGI (SNB-19 CNS): 32.6 µM and > 100 µM
TGI (CAKI-1 renal): 33.3 µM and > 100 µM
TGI (UACC-62 melanoma): 28.2 µM and > 100 µM
TGI (SNB-75 CNS): 48.4 µM and > 100 µM
